Literature values as cited in patent publication US20220202844A1, “DRUG DELIVERY COMPOSITION AND A METHOD OF ADMINISTERING THE DRUG” (priority 2020, published 2022).
Values after ≈ are worked out from the molar mass of the structure shown.

Settings: background statement

aqueous solubility: 50 mg/mL (≈ 75.4 mM)
SMILES: NC(=O)c1ccc[n+]([C@@H]2O[C@H](COP(=O)([O-])OP(=O)(O)OC[C@H]3O[C@@H](n4cnc5c(N)ncnc54)[C@H](O)[C@@H]3O)[C@@H](O)[C@H]2O)c1 [NAD+, nicotinamide adenine dinucleotide]
